The values below come from patent publication US10266482B2, “Long-term memory inducing agent” (NATIONAL UNIVERSITY CORPORATION TOKYO MEDICAL AND DENTAL …, priority 2017, dated 2019).

A short description of data set [1]: Measurement of brain AMK level after intraperitoneal administration. Conditions: 1 mg/kg bw intraperitoneal. It is filed as in vivo, ICR mice. How it is done:
(§1) 8-week-old male ICR mice were purchased. Each of the experiment individuals was raised in an individual cage, and adapted to the raising environment for at least a week before use. The rearing room was kept at 22° C. at cycles of 12 hours of light period/12 hours of dark period, and feed and drinking water were given freely. All of the experiments were conducted during the latter 6 hours of the light period.
(§2) N(1)-acetyl-5-methoxykynuramine (AMK) was used as a drug. AMK was diluted with physiological saline. In the administration experiment, a dosage of 0.001 mg-1 mg/3.65 ml/kg bw was intraperitoneally administered.
1 mg/kg bw of AMK was intraperitoneally administered, and 5, 15, 30, 60, 120 and 240 minutes later, the hippocampus and a region including the perirhinal cortex of the temporal lobe that was assumed to be involved in object recognition memory were collected to measure the AMK levels with a high-performance liquid chromatograph mass spectrometer. As a control group, AMK levels in untreated individuals were also measured

Data set [2] has as its system young mice. Briefly: Object recognition test (ORT) with young mice. It is filed as in vivo, ICR mice. How it is done:
as §1, §2
(§3) For an object recognition test, two each of two types of objects (height 6 cm×diameter 4 cm, height 7 cm×diameter 7 cm) and an observation box (height 30 cm×width 40 cm×depth 30 cm) were used. This test consisted of an acquisition trial and a test trial, and the experimental individuals were allowed to explore in the observation box 5 minutes a day for 3 days immediately before the experiment in order to adapt the experimental individuals to the observation box. In the acquisition trial, two identical objects were presented to the observation box and the experimental individuals were allowed to search for a minute. When the acquisition trials were conducted for more than one time, the acquisition trials were conducted at one-hour intervals. The test trial was conducted 24 hours, or 4 or 7 days after the last acquisition trial. In the test trials, one of the two identical objects presented in the acquisition trials was exchanged with a different object (new object), and the experimental individuals were allowed to search for 5 minutes. During the test trials, the time that took each of the mice to search for the object was measured, and the ratio of the searching time of the two objects (DI value:discrimination index) was calculated according to the following formula to examine the relative cognitive levels to the new object. DI value (%)=Tn×100/(Tf+Tn)
The object recognition test was a method of evaluating the learning/memory function that utilizes mice's novelty-seeking behavior.
One-sample t-test was employed to compare the DI value with the expected value (50%). In each experiment, when comparison among individual groups was required, an unpaired t-test was employed for comparing two groups while multiple comparisons including one-way analysis of variance followed by Bonferroni test was conducted for comparing three or more groups.

A further data set has as its system aged mice. Briefly: Object recognition test (ORT) with aged mice. In kind it is in vivo, ICR mice. Conditions: for long-term memory formation (DI value, test trial 24 hours later): aged (14-month-old) mice. Here is the method:
2-month-old male ICR mice (young mice) and 14-month-old male ICR mice (aged mice) were used. The rearing room was kept at 22° C. at cycles of 12 hours of light period/12 hours of dark period, and feed and drinking water were given freely. All of the experiments were conducted during the latter 6 hours of the light period.
N(1)-acetyl-5-methoxykynuramine (AMK) was used as a drug. AMK was diluted with physiological saline for the administration experiment with the aged mouse, and a dosage of 0.1 mg/kg bw or 1 mg/kg bw was intraperitoneally administered.
as §3, with “hours” for “hours,”, “4” for “4 or 7”, “value: discrimination” for “value:discrimination”
One-sample t-test was employed to compare the DI value with the expected value (50%).

Data set [3] concerns young mice. As to the kind of experiment: Object recognition test for young mice, AMK application to the scalp. In kind it is in vivo, ICR mice. Conditions: 1 μl of 0.4 mg/μl in dimethyl sulfoxide applied to scalp 30 minutes before one 3-minute acquisition trial. How it is done:
Two-month-old male ICR mice (young mice) were used. The rearing room was kept at 22° C. at cycles of 12 hours of light period/12 hours of dark period, and feed and drinking water were given freely. All of the experiments were conducted during the latter 6 hours of the light period.
N(1)-acetyl-5-methoxykynuramine (AMK) was used as a drug. AMK was diluted with dimethyl sulfoxide to result a concentration of 0.4 mg/μl. One μl of the diluent was applied to each individual.
In order to examine the effect of AMK application to the skin, the scalps of the mice were depilated the day before the acquisition trial, AMK or dimethyl sulfoxide as a solvent was applied to 1 cm^2 of the scalp under inhalation anesthesia with isoflurane (Pfizer) 30 minutes before the acquisition trial, left for 5 minute to dry, and then the applied surface was protected with patchProtect (SmartPractice).
Test was conducted in the same manner as “5.3 Object recognition test” in Example 5 except that searching time was 3 minutes in the acquisition trial.
Processing was conducted in the same manner as “5.4 Statistical processing” in Example 5.

The test system of the next data set is young crickets. As to the kind of experiment: Olfactory associative learning test in young crickets (single-time training, memory a day after). It is filed as in vivo, Gryllus bimaculatus.

For the molecule `COc1ccc(N)c(C(=O)CCNC(C)=O)c1` [Compound 1, N-[3-(2-amino-5-methoxyphenyl)-3-oxopropyl]-acetamide], the “crossing of the blood-brain barrier” value in data set [1] was “cross the blood-brain barrier”. Besides, in data set [1], the “time to reach and act in the brain following intraperitoneal administration” value was “about 5 minutes”. The “AMK concentration in hippocampus and perirhinal cortex as compared to the control group” value in data set [1] (within 5 minutes, thereafter decreased with time) is recorded as “significantly increased”. The “long-term memory formation (DI value, test trial 24 hours later)” value was “a long-term memory was not formed” with young mice [2] (0.001 mg/kg bw i.p. 15 minutes after single-time acquisition trial); “long-term memories were formed” in the data set on young mice [2] (0.01 mg/kg bw i.p. 15 minutes after single-time acquisition trial); “long-term memories were formed” in the data set on young mice [2] (0.1 mg/kg bw i.p. 15 minutes after single-time acquisition trial); “long-term memories were formed” in the data set on young mice [2] (1 mg/kg bw i.p. 15 minutes after single-time acquisition trial); “a long-term memory was formed” in the data set with young mice [2] (1 mg/kg bw i.p., administered from 60 minutes prior to 120 minutes following single-time acquisition trial); “a long-term memory was formed” in the data set on aged mice (0.1 mg/kg bw i.p. 15 minutes after two one-minute acquisition trials). The “long-term memory formation (DI value, test trial 24 hours later)” value in the data set with aged mice (1 mg/kg bw i.p. 15 minutes after one one-minute acquisition trial) and in the data set with young mice [3] was “a long-term memory was formed” each time. Moreover, the “duration of induced long-term memory” value in the data set with young mice [2] (1 mg/kg bw i.p. 15 minutes after single-time acquisition trial, test trials 1, 4 and 7 days later) is “at least 7 days”; in the data set on aged mice (aged mice, 1 mg/kg bw i.p. 15 minutes after one acquisition trial, test trials 1 and 4 days later), “at least 4 days”. In addition, in the data set on young mice [2] (1 mg/kg bw i.p., single-time acquisition trial), the “time of administration after the acquisition trial at which long-term memory was still induced” value is “at least 120 minutes”. Further, the “administration amount sufficient to form a long-term memory in terms of human (60 kg)” value in the data set with young mice [2] (converted from 0.01 mg/kg bw in mice) is “about 0.6 mg”. Further, the “administration concentration sufficient to form a long-term memory” value with young mice [2] (i.p. 15 minutes after single-time acquisition trial) amounted to 0.01 mg/kg bw. Besides, the “amount in 1 g of the food per kg of body weight” value with young crickets (based on the results from ingesting 1 μM for 10 μl) is at least 2.32 µg. The “long-term memory formation a day after the training by oral administration” value in the data set on young crickets (drinking 10 μl of aqueous solution (5 μM) 5 minutes after single-time training) is on record as “long-term memory was formed”.
